Experimental data from patent publication US20070142396A1, “Treatment of pain with 1-[3-[4-(3-chlorophenyl)-1-piperazinyl]propyl]-5-methoxy-3,4-dihydro-2(1H)-quinolone or salt thereof” (Vela Pharmaceuticals, Inc., priority 2005, published 2007).

What was measured:
[1] = system: rats with L5 spinal nerve ligation (SNL model); experiment: Spinal nerve ligation (L5) neuropathic pain model, mechanical threshold with von Frey filaments (Example 4); assay type: in vivo, rat; details: gabapentin 50 mg/kg i.p.
Source text: A total of 18 Sprague-Dawley (CD sub-strain) young adult (weight: 150-175 g) male rats were purchased from Harlan Sprague Dawley Company (Indianapolis, Ind.), Alabama colony. The rats were kept three per cage and had free access to food and water. Animals were kept in a room with a reversed light-dark cycle (light: 8:00 PM-8:00 AM) for 1 week before experimental manipulations. Ten rats were allocated to the present study. Eight rats were allocated to the study of Example 5, below.
(§1) The spinal nerve ligation (SNL) model of neuropathic pain was produced in all rats as described by Kim and Chung (Pain, 50, 355-363, 1992). Briefly, under gaseous anesthesia using halothane (3% for induction and 1.5% for maintenance) in oxygen, the left L5 spinal nerve was exposed by removing the paraspinal muscles and the transverse process of the L6 vertebra. The very proximal portion of the L5 spinal nerve was tightly ligated with 6-0 silk suture. The wounds were closed and anesthesia was discontinued. Rats were kept on a heated blanket until they had completely recovered from anesthesia.
OPC-14523 was dispersed in 0.5% tragacanth in distilled water at 20 mg/ml. It was administered as a oral injection in a dose of 100 mg/kg body weight. Gabapentin was prepared at 10 mg/ml in saline and was administered at 50 mg/kg body weight i.p. Gabapentin is a drug that was originally developed as an anticonvulsant but is now widely used as an analgesic for neuropathic pain (Abdi et al., Anesthesia & Analgesia 87:1360-1366 (1998)).
Ten rats were utilized in a Latin-square-design study comparing the activity of OPC-14523 and other compounds against neuropathic pain. Behavioral tests were conducted twice (1 day and 1 hour) before, as well as 1 and 4 days after, the neuropathic surgery. […] The ten rats were randomly divided into five groups of two rats each. […]
This procedure was repeated five times. […] The result was that all ten animals received each of the indicated five compounds in random order and then had mechanical thresholds determined at the indicated times.
Behavioral tests were conducted in a non-blind fashion. The foot withdrawal threshold to mechanical stimuli applied to the paw (mechanical threshold) was measured, as an indicator of mechanical sensitivity of the affected paw. The foot withdrawal threshold was measured using von Frey filaments. […] The mechanical thresholds were measured by using the “up-and-down” method (Chaplan et al., J. Neurosci. Methods 53(1):55-63, 1994), following the procedures described in previous studies (Park et al., Pain 87(2):171-179, 2000; Xie et al., J. Pain 2(5):270-278, 2001; Baik et al., J. Pain 4:212-221, 2003). […]

[2] = system: rats with L5 spinal nerve ligation (SNL model); experiment: Spinal nerve ligation (L5) neuropathic pain model, von Frey filaments, dose range (Example 5); assay type: in vivo, rat; details: gabapentin 100 mg/kg p.o.
Source text: as §1
Behavioral tests were conducted in a non-blind fashion. The foot withdrawal threshold to mechanical stimuli applied to the paw (mechanical threshold) was measured, as an indicator of mechanical sensitivity of the affected paw. The foot withdrawal threshold was measured using von Frey filaments. It is generally thought that von Frey filaments are more sensitive than electronic von Frey probes for measuring tactile stimulation. The mechanical thresholds were measured by using the “up-and-down” method (Chaplan et al., J. Neurosci. Methods 53(1):55-63, 1994), following the procedures described in previous studies (Park et al., Pain 87(2):171-179, 2000; Xie et al., J. Pain 2(5):270-278, 2001; Baik et al., J. Pain 4:212-221, 2003). In brief, rats were placed in a transparent plastic box on a metal wire mesh floor. To determine the threshold stiffness required for 50% paw withdrawal, a series of eight von Frey filaments with approximately equal logarithmic incremental (0.22) von Frey values (3.65, 3.87, 4.10, 4.31, 4.52, 4.74, 4.92, and 5.16) were used. Von Frey (VF) values are logarithmically related to gram (g) values (VF=log (10,000×g)). The chosen von Frey values are therefore equivalent to 0.45, 0.74, 1.26, 2.04, 3.31, 5.50, 8.32, and 14.45 in gram value, respectively. Starting with filament 4.31, von Frey filaments were applied perpendicularly to the ventral surface of the proximal part of the third or fourth toe for 2-3 seconds. Whenever a positive response to a stimulus occurred (paw withdrawal), the next smaller von Frey hair was applied. Whenever a negative response occurred, the next larger one was applied. The test was continued until the response of six stimuli after the first change in response had been obtained or the test had reached either end of the spectrum of the von Frey set.
The 50% threshold value was then calculated using Dixon's formula (Dixon, Ann. Rev. Phar. Tox. 20:441-462, 1980): 50% threshold=X+kd, where X is the value of the final von Frey hair used (in log units), k is the tabular value for the pattern of positive/negative responses, and d is the mean difference between stimuli in log units (0.22). In the cases where continuous positive or negative responses were observed all the way out to the end of the stimulus spectrum, values of 3.54 or 5.27 were assigned, respectively, by assuming a value of (−/+) 0.5 for k in these cases (Dixon, supra, 1980). Outcome of behavioral data were expressed as von Frey values (maximum range from 3.54 to 5.27) and plotted in a linear scale.
Data were expressed as the mean±standard errors of mean (SEM). Differences in mechanical thresholds at various times after injections were tested using two-way (time and group factors) analysis of variance (ANOVA), followed by the Duncan's post-hoc test for multiple comparisons. Statistical analyses were done using the SAS® software program (SAS Institute Inc, Cary, N.C.). Two-tailed p-values<0.05 were considered to be significant.
This experiment was conducted on 8 rats in a Latin-square design examining a dose response of OPC-14523. Gabapentin was prepared at 10 mg/ml in 0.5% tragacanth and administered at 100 mg/kg p.o. Behavioral tests were conducted in a blind fashion twice (1 day and 1 hour) before as well as 1 and 4 days after the neuropathic surgery. […] These 8 rats were randomly divided into 6 groups of 1-2 rats. […]

NCC1(CC(=O)O)CCCCC1 [Gabapentin, gabapentin, reference compound]
level of mechanical threshold increase relative to threshold prior to ligation [1]: about half of the mechanical threshold observed prior to the ligation
effect on mechanical threshold of the lesioned paw for foot withdrawals ([1]; 0.5-6 hours): significantly increased
effect on mechanical threshold of the lesioned paw for foot withdrawals [2]: significant increase
